“Also recorded” adds a separate entry of the source.
Tests used:
[1] = High fat diet prevention group: oral glucose tolerance test; format: in vivo, C57BL/6 mice; settings: 25 mg/kg for 8 weeks concurrently with high fat diet
Method: (§1) Wild type male C57BL/6 mice were fed a high fat diet consisting of 45% of calories from fat (D12451 Research Diets Inc., New Brunswick, N.J.) starting at 8 weeks of age for 12-24 weeks, while normal diet C57BL/6 controls were maintained on normal chow diet consisting of 4.5% fat (5002 Lab Diet, Philadelphia, Pa.). Diets containing ω-3 fatty acids were fed as previously described 24. Rosiglitazone treatment was administered for three weeks by addition of the compound to the diet in mice that had been on HFD for 16 weeks. Each mouse consumed on average 3.5 mg/kg rosiglitazone per day. Amlexanox was administered by daily oral gavage. […] Animals were housed in a specific pathogen-free facility with a 12-hour light/12-hour dark cycle and given free access to food and water. All animal use was in compliance with the Institute of Laboratory Animal Research Guide for the Care and Use of Laboratory Animals and approved by the University Committee on Use and Care of Animals at the University of Michigan and UCSD.
(§2) For glucose tolerance tests, after a six-hour fast mice were orally gavaged with glucose at a dose of 1.5 g/kg (C57BL/6 mice) or 1.2 g/kg (ob/ob mice). […] Blood glucose was measured at basal, 15, 30, 45, 60, 90, 120 and 180 minutes from tail blood using the One Touch Ultra glucometer (Lifescan, Milpitas, Calif.).

[2] = Diet-induced obesity treatment group: blood chemistry; format: in vivo, C57BL/6 mice
Method: as §1
(§3) Blood glucose was measured by OneTouch Ultra Glucometer. Plasma from mice fasted for six hours was isolated from whole blood collected into heparinized tubes. Insulin concentrations were measured by insulin ELISA kit (Crystal Chem Inc., Downers Grove, Ill.). Leptin and adiponectin levels were measured by ELISA kits purchased from Cayman Chem Inc. (Ann Arbor, Mich.). Cytokine levels were quantified utilizing luminex technology in a multianalyte panel plate purchased from Millipore (Billerica, Mass.). Additionally, TNFα levels were measured using ELISA kits purchased from R&D Systems (Minneapolis, Minn.).

[3] = Diet-induced obese mice: energy expenditure (metabolic cages) and core body temperature; format: in vivo, C57BL/6 mice; settings: 25 mg/kg
Method: The University of Michigan Animal Metabolic Phenotyping Core measured oxygen consumption (VO2), carbon dioxide production (VCO2) and spontaneous motor activity during 3 consecutive days using the Comprehensive Laboratory Monitoring System (CLAMS, Columbus Instruments), an integrated open-circuit calorimeter equipped with an optical beam activity monitoring system. The respiratory quotient was calculated by dividing carbon dioxide production by oxygen consumption. The mean values for light and dark cycles were used to analyze statistical significance.
Rectal temperature measurements were performed using a YSI 4600 Precision thermometer (YSI, Inc., Yellow Springs, Ohio).

[4] = Ob/ob mice: body weight, food intake, adipose mass; format: in vivo; settings: 100 mg/kg
[5] = Ob/ob mice: blood chemistry (glucose, adiponectin, serum cytokines); format: in vivo
Method: as §1, §3

[6] = Ob/ob mice: glucose tolerance tests; format: in vivo; settings: 100 mg/kg
Method: (§4) Particular physiological tests were used during the development of the technology provided herein. For example, in some of the experiments described below, subjects were tested for tolerance of injected glucose and insulin according to the methods described in Chiang et al. (“The protein kinase IKKepsilon regulates energy balance in obese mice”, Cell (2009) 138: 961-975, incorporated herein by reference in its entirety for all purposes). In some of the experiments described below, subjects were tested for tolerance of oral glucose. In particular, mice were fasted for 6 hours before the studies. For ob/ob mice, 1.0-1.5 mg/g of glucose was gavaged into mice, and blood glucose was measured with a glucometer (e.g., OneTouch Ultra glucometer). Measurement of triglycerides, mRNA, and cytokines were performed according to the methods described in Chiang et al. (The protein kinase IKKepsilon regulates energy balance in obese mice. Cell (2009) 138: 961-975).
as §2

[7] = Ob/ob mice: insulin tolerance test; format: in vivo; settings: 100 mg/kg, 8-week period
Method: as §4, §2

[8] = Ob/ob mice: liver mRNA levels; format: in vivo; settings: 100 mg/kg for 14 weeks, vs vehicle
Method: as §4
(§5) Mouse tissues were isolated, rinsed in Phosphate Buffered Saline (PBS), frozen in liquid nitrogen and stored at −80° C. until extraction. Total RNA was extracted from Liver, WAT and BAT tissues as well as differentiated 3T3-L1 cells using the RNeasy Lipid Tissue Kit (Qiagen, Valencia, Calif.) according to the manufacturer's instructions with the inclusion of a DNase digestion step. Total RNA was extracted from BMDM and SVF cells using the RNeasy Kit (Qiagen, Valencia, Calif.) with a DNase step. The Superscript First-Strand Synthesis System for RTPCR (Invitrogen, Grand Island, N.Y.) was used with random primers for reverse transcription. Realtime PCR amplification of the cDNA was performed on samples in triplicate with Power SYBR Green PCR Master Mix (Applied Biosystems, Carlsbad, Calif.) using the Applied Biosystems 7900HT Fast Realtime PCR System. […] Data was analyzed using the 2-ΔΔCT method, and statistical significance was determined using the unpaired heterocedastic Student's t-test with one averaged sample value per mouse.

[9] = Ob/ob mice: adipose tissue histology and mRNA levels; format: in vivo
Method: Tissues were fixed in formalin for 3 days. Histology was performed by the University of Michigan Cancer Center Research Histology Laboratory.
as §5

BAT explants = assay: Lipid oxidation rate in ex vivo BAT; design: species or system mice; settings: 5 μM amlexanox, 1 hour
Method: Lipid oxidation was determined by the conversion of 3H-palmitic acid to 3H2O.

CC(C)c1ccc2oc3nc(N)c(C(=O)O)cc3c(=O)c2c1 [amlexanox, 2-amino-7-isopropyl-5-oxo-5H-chromeno[2,3-b]pyridine-3-carboxylic acid]
reduction in the area under the curve for glucose (oral glucose tolerance) [1]: 30-40%
fasting serum insulin ([2]; 25 mg/kg for 8 weeks after established diet-induced obesity): reversed elevations
decrease in fasting levels of leptin ([2]; 25 mg/kg, HFD, treatment phase): 80%
serum cholesterol ([2]; 25 mg/kg, HFD, treatment phase): unchanged
serum free fatty acids ([2]; 25 mg/kg, HFD, treatment phase): unchanged
serum triglycerides ([2]; 25 mg/kg, HFD, treatment phase): unchanged
body temperature (rectal) ([3]; compared to HFD vehicle treated mice): approximate one-degree increase
exhaled carbon dioxide ([3]; diet induced obese mice, four-week treatment): significantly increased
oxygen consumption (VO2) ([3]; diet induced obese mice, four-week treatment, vs vehicle): significantly increased; also recorded: significantly higher
adipose tissue mass [4]: significant decrease
weight loss ([4]; after 4 weeks of treatment): 7 to 8 g
circulating (serum) level of MCP-1 ([5]; 100 mg/kg): not significantly affected
circulating (serum) level of Rantes ([5]; 100 mg/kg): not significantly affected
circulating adiponectin levels ([5]; 100 mg/kg): increase
reduction in fasting glucose levels ([5]; 100 mg/kg): 25%
serum level of IL-1α ([5]; 100 mg/kg): markedly reduced
serum level of MIP1α ([5]; 100 mg/kg): markedly reduced
serum level of TNFα ([5]; 100 mg/kg): markedly reduced
serum level of IL-10 ([5]; compared to controls): elevated
tolerance to injected glucose ([6]; 5-week period): faster clearance of blood glucose
reduction in the area under the curve (oral glucose tolerance) ([6]; 8-week period, relative to control mice): 30-40%
insulin sensitivity (responsiveness to injected insulin) [7]: dramatically improved
liver mRNA level, Cd11c [8]: reduced
liver mRNA level, F4/80 [8]: reduced
liver mRNA level, IL-10 [8]: reduced
liver mRNA level, MIP1α [8]: reduced
liver mRNA level, Rantes [8]: reduced
liver mRNA level, TNFα [8]: reduced
liver mRNA level, acetyl CoA carboxylase (ACC) [8]: reduced
liver mRNA level, fatty acid synthase (FAS) [8]: reduced
liver mRNA level, stearyl CoA desaturase (SCD1) [8]: reduced
expression of Glut4 in WAT ([9]; 100 mg/kg): Increased expression
expression of PPARγ in WAT ([9]; 100 mg/kg): Increased expression
adipose tissue mRNA level, CD11c ([9]; 100 mg/kg for 12 weeks): marked reduction
adipose tissue mRNA level, F4/80 ([9]; 100 mg/kg for 12 weeks): marked reduction
adipose tissue mRNA level, IL-10 ([9]; 100 mg/kg for 12 weeks): marked reduction
adipose tissue mRNA level, MCP-1 ([9]; 100 mg/kg for 12 weeks): marked reduction
adipose tissue mRNA level, MIP1α ([9]; 100 mg/kg for 12 weeks): marked reduction
adipose tissue mRNA level, Rantes ([9]; 100 mg/kg for 12 weeks): marked reduction
adipose tissue mRNA level, TNFα ([9]; 100 mg/kg for 12 weeks): marked reduction
infiltration of inflammatory macrophages in adipose tissue (H & E) ([9]; 100 mg/kg for 12 weeks, epididymal fat): markedly reduced
lipid oxidation (3H-palmitic acid to 3H2O) (BAT explants): acutely stimulated

Reference: patent US10245255B2, “Compositions and methods for the treatment of obesity and related disorders” (THE REGENTS OF THE UNIVERSITY OF MICHIGAN, priority 2011, dated 2019)
